In ChEMBL document CHEMBL4346665, “Synthesis and evaluation of tetrahydroquinolin-2(1H)-one derivatives as novel anti-pancreatic cancer agents via targeting autophagy” (Eur J Med Chem, 2019):

What was measured:
Conditions in all cases: PANC-1, 24 h
PANC-1 [1] = test: Growth inhibition of human PANC1 cells in nutrient-rich medium at 10 uM incubated for 24 hrs by MTT assay (reference value: 0.0 +/- 3.8%); format: functional
PANC-1 [2] = test: Growth inhibition of human PANC1 cells in nutrient-deprived medium at 10 uM incubated for 24 hrs by MTT assay (reference value: 0.0 +/- 1.9%); format: functional
PANC-1 [3] = test: Growth inhibition of human PANC1 cells in nutrient-deprived medium incubated for 24 hrs by MTT assay; format: functional, cell-based

| SMILES | inhibition at 10 µM (PANC-1 [1]) | inhibition at 10 µM (PANC-1 [2]) | IC50 (PANC-1 [3]) |
| --- | --- | --- | --- |
| CC(C)=CCC1Cc2c(OC(=O)Nc3cccc(F)c3)cc(=O)n(CCCO)c2CC1(C)C (stereo not given) | 0% | 66.1% |  |
| CC(C)=CCC1Cc2c(OCCCNS(=O)(=O)c3ccc(Cl)cc3)cc(=O)n(CCCO)c2CC1(C)C (stereo not given) | 9.8% | 24.7% |  |
| CC(C)=CCC/C(C)=C/CC1Cc2c(OCCCNS(=O)(=O)c3ccc([N+](=O)[O-])cc3)cc(=O)n(CCCO)c2CC1(C)C (stereo not given) | 0% | 7.4% |  |
| COc1ccc(C(=O)NCCCOc2cc(=O)n(CCCO)c3c2CC(C/C=C(\C)CCC=C(C)C)C(C)(C)C3)cc1 (stereo not given) | 14.1% | 45.7% |  |
| CC(C)=CCC1Cc2c(OCCCNS(=O)(=O)c3ccc([N+](=O)[O-])cc3)cc(=O)n(CCCO)c2CC1(C)C (stereo not given) | 17.3% | 47.7% |  |
| CC(C)=CCC/C(C)=C/CC1Cc2c(OCCCOc3ccc(Cl)cc3)cc(=O)n(CCCO)c2CC1(C)C (stereo not given) | 0% | 25.2% |  |
| COc1ccc(OCCCOc2cc(=O)n(CCCO)c3c2CC(CC=C(C)C)C(C)(C)C3)cc1 (stereo not given) | 4.1% | 47.7% |  |
| CC(C)=CCC1Cc2c(OCCCNC(=O)c3ccco3)cc(=O)n(CCCO)c2CC1(C)C (stereo not given) | 4.3% | 2.1% |  |
| CC(C)=CCC/C(C)=C/COc1cc(=O)n(CCCO)c2c1CC(CC=C(C)C)C(C)(C)C2 (stereo not given) | 18.4% | 10.6% |  |
| CC(C)=CCC1Cc2c(O)cc(=O)n(CCCO)c2CC1(C)C (stereo not given) | 0% | 25.6% |  |
| COc1ccc(OCCCOc2cc(=O)n(CCCO)c3c2CC(C/C=C(\C)CCC=C(C)C)C(C)(C)C3)cc1 (stereo not given) | 0% | 20% |  |
| CC(C)=CCC1Cc2c(OCCCOc3ccc([N+](=O)[O-])cc3)cc(=O)n(CCCO)c2CC1(C)C (stereo not given) | 0% | 47.5% |  |
| CC(C)=CCC1Cc2c(OC(=O)Nc3ccc(Cl)c(Cl)c3)cc(=O)n(CCCO)c2CC1(C)C (stereo not given) | 1.8% | 61.4% |  |
| CC(C)=CCC1Cc2c(OCc3ccccc3)cc(=O)n(CCCO)c2CC1(C)C (stereo not given) | 11.1% | -0.3% |  |
| CC(C)=CCC/C(C)=C/CC1Cc2c(OC(=O)Nc3ccc(F)c(Cl)c3)cc(=O)n(CCCO)c2CC1(C)C (stereo not given) | 0% | 25% |  |
| CC(C)=CCC/C(C)=C/CC1Cc2c(OC(=O)Nc3ccc(F)cc3)cc(=O)n(CCCO)c2CC1(C)C (stereo not given) | 6.2% | 43.9% |  |
| COc1ccc(C(=O)NCCCOc2cc(=O)n(CCCO)c3c2CC(CC=C(C)C)C(C)(C)C3)cc1 (stereo not given) | 2.5% | 55.5% |  |
| CC(C)=CCC/C(C)=C/CC1Cc2c(O)cc(=O)n(CCCO)c2CC1(C)C (stereo not given) | 0% | 28.7% |  |
| CC(C)=CCC/C(C)=C/CC1Cc2c(OCCCOc3ccc([N+](=O)[O-])cc3)cc(=O)n(CCCO)c2CC1(C)C (stereo not given) | 9.8% | 65.1% | 6.3 µM |
| CC(C)=CCC/C(C)=C/CC1Cc2c(OC(=O)Nc3ccc(F)c(F)c3)cc(=O)n(CCCO)c2CC1(C)C (stereo not given) | 4.8% | 43.7% |  |
| CC(C)=CCC/C(C)=C/CC1Cc2c(OCCCNC(=O)c3ccc([N+](=O)[O-])cc3)cc(=O)n(CCCO)c2CC1(C)C (stereo not given) | 6.5% | 16.8% |  |
| CC(C)=CCC/C(C)=C/CC1Cc2c(OC(=O)Nc3ccc(F)cc3F)cc(=O)n(CCCO)c2CC1(C)C (stereo not given) | 15.6% | 33.7% |  |
| CC(C)=CCC1Cc2c(OCCCNS(=O)(=O)c3ccc(C(F)(F)F)cc3)cc(=O)n(CCCO)c2CC1(C)C (stereo not given) | 0% | 29.6% |  |
| CC(C)=CCC1Cc2c(OC(=O)Nc3ccc(Cl)cc3)cc(=O)n(CCCO)c2CC1(C)C (stereo not given) | 0% | 49.8% |  |
| CC(C)=CCC/C(C)=C/CC1Cc2c(OCCCNS(=O)(=O)c3ccc(Cl)cc3)cc(=O)n(CCCO)c2CC1(C)C (stereo not given) | 16.1% | 14.5% |  |
| COc1ccc(NC(=O)Oc2cc(=O)n(CCCO)c3c2CC(C/C=C(\C)CCC=C(C)C)C(C)(C)C3)cc1 (stereo not given) | 0% | 64.1% | 7.1 µM |
| CC(C)=CCC/C(C)=C/CC1Cc2c(OC(=O)Nc3ccc(Cl)cc3)cc(=O)n(CCCO)c2CC1(C)C (stereo not given) | 4.3% | 47.2% |  |
| COc1cccc(NC(=O)Oc2cc(=O)n(CCCO)c3c2CC(CC=C(C)C)C(C)(C)C3)c1 (stereo not given) | 0% | 16.2% |  |

| SMILES | inhibition at 10 µM (PANC-1 [1]) | inhibition at 10 µM (PANC-1 [2]) | IC50 (PANC-1 [3]) |
| --- | --- | --- | --- |
| CC(C)=CCC1Cc2c(OC(=O)Nc3ccccc3F)cc(=O)n(CCCO)c2CC1(C)C (stereo not given) | 0% | 52.3% |  |
| CC(C)=CCC/C(C)=C/CC1Cc2c(OCc3ccccc3)cc(=O)n(CCCO)c2CC1(C)C (stereo not given) | 1.5% | 46.5% |  |
| CCOc1cc(=O)n(CCCO)c2c1CC(CC=C(C)C)C(C)(C)C2 (stereo not given) | 16.6% | 66.5% | 7.3 µM |
| CC(C)=CCC/C(C)=C/CC1Cc2c(OC(=O)Nc3cccc(F)c3)cc(=O)n(CCCO)c2CC1(C)C (stereo not given) | 0% | 52.3% |  |
| COc1ccccc1NC(=O)Oc1cc(=O)n(CCCO)c2c1CC(C/C=C(\C)CCC=C(C)C)C(C)(C)C2 (stereo not given) | 0% | 53% |  |
| CC(C)=CCC/C(C)=C/CC1Cc2c(OC(=O)Nc3ccccc3F)cc(=O)n(CCCO)c2CC1(C)C (stereo not given) | 0% | 71.6% | 7.4 µM |
| CC(C)=CCC/C(C)=C/CC1Cc2c(OCC=C(C)C)cc(=O)n(CCCO)c2CC1(C)C (stereo not given) | 15.9% | 30.3% |  |
| CC(C)=CCC/C(C)=C/COc1cc(=O)n(CCCO)c2c1CC(C/C=C(\C)CCC=C(C)C)C(C)(C)C2 (stereo not given) | 3.1% | 15.8% |  |
| CC(C)=CCC/C(C)=C/CC1Cc2c(OC(=O)Nc3ccc(Cl)c(Cl)c3)cc(=O)n(CCCO)c2CC1(C)C (stereo not given) | 0% | 20% |  |
| CC(C)=CCC/C(C)=C/CC1Cc2c(OCCCNS(=O)(=O)c3ccc(C(F)(F)F)cc3)cc(=O)n(CCCO)c2CC1(C)C (stereo not given) | 0% | 26.4% |  |
| CC(C)=CCOc1cc(=O)n(CCCO)c2c1CC(CC=C(C)C)C(C)(C)C2 (stereo not given) | 7.5% | 20.7% |  |
| CCOc1cc(=O)n(CCCO)c2c1CC(C/C=C(\C)CCC=C(C)C)C(C)(C)C2 (stereo not given) | 0.8% | 67.8% | 5.8 µM |
| CC(C)=CCC/C(C)=C/CC1Cc2c(OCCCNC(=O)c3ccco3)cc(=O)n(CCCO)c2CC1(C)C (stereo not given) | 2.8% | 69.5% | 5.2 µM |
| CC(C)=CCC1Cc2c(OC(=O)Nc3cccc(C(F)(F)F)c3)cc(=O)n(CCCO)c2CC1(C)C (stereo not given) | 0% | 54.3% |  |
| CC(C)=CCC1Cc2c(OC(=O)Nc3ccc(F)c(F)c3)cc(=O)n(CCCO)c2CC1(C)C (stereo not given) | 0% | 76.7% | 7.3 µM |
| CC(C)=CCC/C(C)=C/CC1Cc2c(OCCCNS(=O)(=O)c3ccc(Br)cc3)cc(=O)n(CCCO)c2CC1(C)C (stereo not given) | 0% | 15.2% |  |
| CC(C)=CCC1Cc2c(OCCCNS(=O)(=O)c3ccc(Br)cc3)cc(=O)n(CCCO)c2CC1(C)C (stereo not given) | 3.7% | 19.5% |  |
| COc1ccccc1NC(=O)Oc1cc(=O)n(CCCO)c2c1CC(CC=C(C)C)C(C)(C)C2 (stereo not given) | 0% | 71.1% | 7.7 µM |
| COc1ccc(NC(=O)Oc2cc(=O)n(CCCO)c3c2CC(CC=C(C)C)C(C)(C)C3)cc1 (stereo not given) | 0% | 3.7% |  |
| CC(C)=CCC1Cc2c(OCCCNC(=O)c3ccc([N+](=O)[O-])cc3)cc(=O)n(CCCO)c2CC1(C)C (stereo not given) | 9.1% | 49.9% |  |
| COc1cccc(NC(=O)Oc2cc(=O)n(CCCO)c3c2CC(C/C=C(\C)CCC=C(C)C)C(C)(C)C3)c1 (stereo not given) | 11.3% | 47% |  |
| CC(C)=CCC1Cc2c(OC(=O)Nc3ccc(F)c(Cl)c3)cc(=O)n(CCCO)c2CC1(C)C (stereo not given) | 0% | 79.8% | 6.8 µM |
| CC(C)=CCC1Cc2c(OCCCOc3ccc(Cl)cc3)cc(=O)n(CCCO)c2CC1(C)C (stereo not given) | 0% | 22.7% |  |
| CC(C)=CCC/C(C)=C/CC1Cc2c(OC(=O)Nc3cccc(C(F)(F)F)c3)cc(=O)n(CCCO)c2CC1(C)C (stereo not given) | 6.7% | 44% |  |
| CC(C)=CCC1Cc2c(OC(=O)Nc3ccc(F)cc3F)cc(=O)n(CCCO)c2CC1(C)C (stereo not given) | 0% | 69.7% |  |
| CC(C)=CCC1Cc2c(OC(=O)Nc3ccc(F)cc3)cc(=O)n(CCCO)c2CC1(C)C (stereo not given) | 0% | 71.2% | 7.7 µM |
| CC(C)=CCC1Cc2c(OCCCNC(=O)c3cccs3)cc(=O)n(CCCO)c2CC1(C)C (stereo not given) | 5.6% | 33.6% |  |
